Laboratory results: patent publication US11622946B2, “Uses of a carotenoid in the treatment or prevention of stress induced conditions” (GREENALTECH, S.L., priority 2016, dated 2023)
Like-named read-outs stand apart in the source and are kept apart here.

Legend:
[1] = biological target: T1, human Gluocorticoid receptor (GR) (Homo sapiens, UniProt P04150); test: GR antagonist assay (GeneBLAzer beta-lactamase reporter, GR-UAS-bla HEK 293T cells, dexamethasone as agonist); assay type: cell-based; settings: for antagonist effect on GR (in words) / GR inhibition: against dexamethasone; for GR inhibition: at 10 μM
T1 construct: expressed in transfected cells; host or cells: GeneBLAzer UAS-bla HEK 293T
T1 sequence (P04150 524-758 limits assumed): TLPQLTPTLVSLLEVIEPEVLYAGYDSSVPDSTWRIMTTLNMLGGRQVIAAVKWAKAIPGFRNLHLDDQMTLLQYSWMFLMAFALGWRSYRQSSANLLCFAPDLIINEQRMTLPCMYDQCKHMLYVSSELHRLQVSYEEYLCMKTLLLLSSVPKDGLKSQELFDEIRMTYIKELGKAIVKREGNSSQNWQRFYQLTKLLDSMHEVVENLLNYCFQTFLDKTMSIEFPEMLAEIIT
Experimental: An antagonist assay for GR was performed.
These cells stably express a beta-lactamase reporter gene under the transcriptional control of an upstream activator sequence (UAS). When an agonist binds to the LBD of the GAL4 (DBD)-GR (LBD) fusion protein, the protein binds to the UAS, resulting in expression of beta-lactamase.
32 μL of cell suspension is added to the wells and pre-incubated at 37° C./5% CO2 in a humidified incubator with compounds and control antagonist titration for 30 minutes. 4 μL of 10× control agonist. Dexamethasone at the pre-determined EC80 concentration is added to wells containing the control antagonist or compounds. The plate is incubated for 16-24 hours at 37° C./5% CO2 in a humidified incubator. 8 μL of 1 μM Substrate Loading Solution is added to each well and the plate is incubated for 2 hours at room temperature. The plate is read on a fluorescence plate reader.

[2] = test system: p53 in HaCat keratinocytes; test: p53 quantification by ELISA after hydrocortisone (Human Total p53 DuoSet IC ELISA); assay type: cell-based; settings: compounds at 0.1 and 1 μM, 1 h before 10 μM hydrocortisone, 2 h
Experimental: HaCat keratinocytes were cultured in DMEM medium supplemented with 10% FCS. […] Assays were performed with cells between 80% and 90% of confluence and with a cell viability above 90% (tested by trypan blue staining). 20000 cells per experimental condition were seeded in 24 well plates with 1 mL of medium for 24h. Culture medium was substituted for not supplemented DMEM and after a 24 hour incubation, compounds were added at 0.1 and 1 μM to assay wells. […] Cells were lysed in 100 μL of lysis buffer and 5 μg of total cell extract were used for the quantitative ELISA. Optical density was measured at 450 nm and background was subtracted.

HaCat cell line = test: Hydrocortisone-induced DNA damage assay (HCS DNA Damage kit, phosphorylated H2AX); assay type: cell-based, human; settings: compounds at 0.1 μM, 1 h before 10 μM hydrocortisone
Experimental: HaCat cell line, a spontaneously transformed aneuploid immortal keratinocyte cell line from adult human skin was used. Keratinocytes were cultured in DMEM medium supplemented with 10% FCS. […] Assays were performed with cells between 80% and 90% of confluence and with a cell viability above 90% (tested by trypan blue staining). 20000 cells per experimental condition were seeded in 24 well plates with 1 mL of medium for 24 h. Culture medium was substituted for not supplemented DMEM and after a 24 hour incubation, compounds were added at 0.1 μM to assay wells. […] Plate was incubated for 30 min before the DNA extraction. DNA damage was quantified using the HCS DNA Damage kit (ThermoFisher®). “The HCS DNA Damage kit simultaneously and quantitatively measures two important cell-health parameters: DNA damage and cytotoxicity. DNA damage is detected using an antibody against phosphorylated H2AX (Ser139) which is induced in response to double-strand break (DSB) formation”. Plate was read using Fluoroscan at 355-460 nm for Hoechst (cell number) and 485-538 nm for the secondary antibody (DNA damage). Background is subtracted and relativized with values obtained from Hoechst staining in order to obtain the value of DNA damage relative to the cell count of each well. Results were normalized using the basal values.

[3] = biological target: T2, progesterone receptors (PR) (Homo sapiens, UniProt P06401); test: PR antagonist assay (GeneBLAzer beta-lactamase reporter, UAS-bla HEK 293T cells, R5020 as agonist); assay type: cell-based; settings: for antagonist action on PR (in words): against promegestone (R5020)
T2 sequence (P06401 679-933 limits assumed): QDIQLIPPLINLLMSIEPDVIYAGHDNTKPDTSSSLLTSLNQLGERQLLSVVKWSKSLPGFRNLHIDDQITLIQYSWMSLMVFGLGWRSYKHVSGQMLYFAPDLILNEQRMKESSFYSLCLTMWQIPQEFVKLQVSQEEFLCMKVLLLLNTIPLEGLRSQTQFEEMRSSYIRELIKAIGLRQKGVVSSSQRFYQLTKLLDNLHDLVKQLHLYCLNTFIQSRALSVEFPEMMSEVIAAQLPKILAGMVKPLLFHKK
Experimental: An antagonist assay for PR was performed. In this assay, an engineered cell line (UAS-bla HEK 293T) expressing PR is used to test the action of two xanthophylls. The detection method consists in GeneBLAzer® technology, based on mammalian-optimized Beta-lactamase reporter gene (bla) combined with a FRET-enabled substrate.
In FIG. 7, neoxanthin and fucoxanthin were tested against the agonist promegestone (R5020).

[4] = test system: triple negative breast adenocarcinoma cell line MDA-MB-231; test: Cytotoxicity by the MTT method; settings: MDA-MB-231, 72 h, read-out: EC50 (cytotoxic effect)
Experimental: For that purpose the cytotoxic effects (EC50) of fucoxanthin (063-06691, Wako Chemicals) alone and combined with paclitaxel (T1912, Sigma-Aldrich) on the triple negative breast adenocarcinoma cell line MDA-MB-231 (ECACC: 92020424) were assessed.
In a first setup, MDA-MB-231 cells were seeded in 96 well plates with 100 μL of DMEM +10% FBS and incubated at 37° C., 5% CO2 and 90% humidity. After 24 hours, with a confluence and viability of between 80 and 90% as assessed by trypan blue test, cells were treated with serial dilutions (1:3) in DMEM+10% FBS of fucoxanthin solubilized in DMSO ranging from 100 μM to 15.2 nM.
In a second setup, MDA-MB-231 cells were seeded in 96 well plates with 100 μL of DMEM +10% FBS and incubated at 37° C., 5% CO2 and 90% humidity. After 24 hours, with a confluence and viability of between 80 and 90% as assessed by trypan blue test, cells were treated with serial dilutions (1:3) of paclitaxel in DMEM+10% FBS ranging from 1 μM to 0.15 nM or with both the same concentrations of paclitaxel plus a fixed subtoxic concentration of fucoxanthin (1 μM) solubilized in DMSO (100 μM).

| Compound | antagonist effect on GR (in words) [1] | p53 expression in the presence of hydrocortisone (in words) [2] | protection of DNA from hydrocortisone-induced damage (in words) (HaCat cell line) | antagonist action on PR (in words) [3] | GR inhibition [1] | further results |
| --- | --- | --- | --- | --- | --- | --- |
| CC1=C(/C=C/C(C)=C/C=C/C(C)=C/C=C/C=C(C)/C=C/C=C(C)/C=C/C2=C(C)C(=O)[C@@H](O)CC2(C)C)C(C)(C)C[C@H](O)C1=O [astaxanthin] | neither compounds exercise an antagonist effect on GR | – | – | – | – | – |
| CC1=C(/C=C/C(C)=C/C=C/C(C)=C/C=C/C=C(C)/C=C/C=C(C)/C=C/C2=C(C)CCCC2(C)C)C(C)(C)CCC1 [beta-carotene] | neither compounds exercise an antagonist effect on GR | – | – | – | – | – |
| C\C(C=C=C1C(C)(C)C[C@H](O)C[C@@]1(C)O)=C/C=C/C(C)=C/C=C/C=C(C)/C=C/C=C(\C)C(=O)/C=C1\C(C)(C)C[C@H](O)C[C@@]1(C)O [iso-fucoxanthinol] | – | – | – | – | – | maximum GR inhibition ([1]; at 10 mM (so in the source), against dexamethasone (FIG. 6)): 80% |
| CC(=C/C=C/C(C)=C/C=C/C=C(C)/C=C/C=C(\C)C=C=C1C(C)(C)C[C@H](O)C[C@@]1(C)O)/C=C/[C@@]12O[C@]1(C)C[C@@H](O)CC2(C)C [neoxanthin] | total antagonist | increase p53 expression | capable of protecting DNA | None of them showed an important antagonist action | above 85% | – |
| CC(=O)O[C@H]1C(=O)[C@@]2(C)[C@H]([C@H](OC(=O)c3ccccc3)[C@]3(O)C[C@H](OC(=O)[C@H](O)[C@@H](NC(=O)c4ccccc4)c4ccccc4)C(C)=C1C3(C)C)[C@]1(OC(C)=O)CO[C@@H]1C[C@@H]2O [paclitaxel, reference compound] | – | – | – | – | – | EC50 ([4]; Homo sapiens): 0.0044 µM |
| fucoxanthin | parcial antagonist | increase p53 expression | capable of protecting DNA | None of them showed an important antagonist action | 50% | EC50 ([4]; MTT, fucoxanthin alone): 7.46 µM; PR inhibition ([3]; at the highest concentration tested, against R5020): 30%; concentration from which compound acts as GR antagonist ([1]; against dexamethasone (FIG. 5)): 30 nM |
